Assay results as given in ChEMBL document CHEMBL1201862, “PubChem BioAssay data set” (2004).
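Values below derive from 48-hour exposures of cells grown in 96-well plates, with endpoints linearly interpolated between the two concentrations bracketing the appropriate inhibition level. Abbreviation: GI50, concentration required for 50% inhibition of growth.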 Active and inactive are the calls of the source. Cut-off read from the data, not from the text of the source: active = GI50 up to about 1.1 µM and inactive = higher.

What was measured:
Assay in all cases: NCI anticancer screen, dose series, 48 h
[1] = tested on: SF-539
[2] = tested on: U-251
[3] = tested on: SK-MEL-28
[4] = tested on: PC-3
[5] = tested on: SK-MEL-5
[6] = tested on: NCI-H522
[7] = tested on: BT-549
[8] = tested on: MCF7
[9] = tested on: OVCAR-4
[10] = tested on: DU-145
[11] = tested on: HT-29
[12] = tested on: NCI-H226
[13] = tested on: LOX IMVI
[14] = tested on: SNB-75
[15] = tested on: HCC 2998
[16] = tested on: COLO 205
[17] = tested on: KM12
[18] = tested on: SK-MEL-2
[19] = tested on: SF-295
[20] = tested on: Malme-3M
[21] = tested on: SW-620
[22] = tested on: A498
[23] = tested on: HL-60
[24] = tested on: OVCAR-3
[25] = tested on: MOLT-4
[26] = tested on: HOP-92
[27] = tested on: UACC-62
[28] = tested on: MDA-MB-231
[29] = tested on: ACHN
[30] = tested on: SNB-19
[31] = tested on: SR
[32] = tested on: SK-OV-3
[33] = tested on: M14
[34] = tested on: A549
[35] = tested on: TK-10
[36] = tested on: HCT-116
[37] = tested on: NCI-H460
[38] = tested on: MDA-MB-435
[39] = tested on: CCRF-CEM
[40] = tested on: NCI-H23
[41] = tested on: RXF 393
[42] = tested on: EKVX
[43] = tested on: IGROV-1
[44] = tested on: SF-268
[45] = tested on: HCT-15
[46] = tested on: CAKI-1
[47] = tested on: HOP-62
[48] = tested on: T47D
[49] = tested on: MDA-N
[50] = tested on: UO-31
[51] = tested on: K562
[52] = tested on: Hs-578T
[53] = tested on: OVCAR-8
[54] = tested on: 786-0
[55] = tested on: OVCAR-5
[56] = tested on: RPMI-8226
[57] = tested on: UACC-257
[58] = tested on: SN12C
[59] = tested on: NCI/ADR-RES

SMILES: CNc1cc2c(c3ccccc13)C(CCl)CN2C(=O)c1cc2cc(OC)c(OC)c(OC)c2[nH]1 (stereo not drawn)
- GI50 [1]: 1.96 nM (active)
- GI50 [2]: 1.91 nM (active)
- GI50 [3]: 12.2 nM (active)
- GI50 [4]: 2.14 nM (active)
- GI50 [5]: 1.46 nM (active)
- GI50 [6]: < 10 nM (active)
- GI50 [7]: 8.81 nM (active)
- GI50 [8]: 0.822 nM (active)
- GI50 [9]: < 10 nM (active)
- GI50 [10]: 0.442 nM (active)
- GI50 [11]: 1.3 nM (active)
- GI50 [12]: 13.8 nM (active)
- GI50 [13]: 1.06 nM (active)
- GI50 [14]: 2.52 nM (active)
- GI50 [15]: < 10 nM (active)
- GI50 [16]: 2.27 nM (active)
- GI50 [17]: 3.8 nM (active)
- GI50 [18]: 7.85 nM (active)
- GI50 [19]: 1.55 nM (active)
- GI50 [20]: < 10 nM (active)
- GI50 [21]: 1.44 nM (active)
- GI50 [22]: 2.61 nM (active)
- GI50 [23]: 0.123 nM (active)
- GI50 [24]: 22.6 nM (active)
- GI50 [25]: 0.53 nM (active)
- GI50 [26]: 4.84 nM (active)
- GI50 [27]: 0.588 nM (active)
- GI50 [28]: 7.4 nM (active)
- GI50 [29]: 0.124 nM (active)
- GI50 [30]: 12.4 nM (active)
- GI50 [31]: 0.275 nM (active)
- GI50 [32]: 11.6 nM (active)
- GI50 [33]: 2.35 nM (active)
- GI50 [34]: 1.53 nM (active)
- GI50 [35]: 2.18 nM (active)
- GI50 [36]: 1.06 nM (active)
- GI50 [37]: 0.212 nM (active)
- GI50 [38]: 3.09 nM (active)
- GI50 [39]: 0.53 nM (active)
- GI50 [40]: 0.465 nM (active)
- GI50 [41]: < 10 nM (active)
- GI50 [42]: 3.81 nM (active)
- GI50 [43]: 2.43 nM (active)
- GI50 [44]: 1.7 nM (active)
- GI50 [45]: 1.37 nM
- GI50 [46]: 0.703 nM (active)
- GI50 [47]: 2.81 nM (active)
- GI50 [48]: 3.22 nM (active)
- GI50 [49]: 2.43 nM (active)
- GI50 [50]: 2.23 nM (active)
- GI50 [51]: 1.88 nM (active)
- GI50 [52]: 8.02 nM (active)
- GI50 [53]: 1.23 nM (active)
- GI50 [54]: 0.809 nM (active)
- GI50 [55]: 5.2 nM (active)
- GI50 [56]: 4.55 nM (active)
- GI50 [57]: 5.41 nM (active)
- GI50 [58]: 0.881 nM (active)
- GI50 [59]: 0.991 nM (active)

SMILES: CC(=O)O[C@H]1CC[C@@]2(C)C(=CC[C@H]3[C@@H]4CC[C@H](c5cc(C(F)(F)F)n(C(C)=O)n5)[C@@]4(C)CC[C@@H]32)C1
- GI50 [1]: 6470 nM (inactive)
- GI50 [2]: 4790 nM (inactive)
- GI50 [3]: 13600 nM (inactive)
- GI50 [4]: 4470 nM (inactive)
- GI50 [5]: 3450 nM (inactive)
- GI50 [6]: 17100 nM (inactive)
- GI50 [7]: 10700 nM (inactive)
- GI50 [8]: 5870 nM (inactive)
- GI50 [9]: 3310 nM (inactive)
- GI50 [10]: 11400 nM (inactive)
- GI50 [11]: 4620 nM (inactive)
- GI50 [12]: 3240 nM (inactive)
- GI50 [13]: 7400 nM (inactive)
- GI50 [14]: 8220 nM (inactive)
- GI50 [15]: 13600 nM (inactive)
- GI50 [16]: 3620 nM (inactive)
- GI50 [17]: 8410 nM (inactive)
- GI50 [18]: 6930 nM (inactive)
- GI50 [19]: 4850 nM (inactive)
- GI50 [20]: > 35000 nM (inactive)
- GI50 [21]: 12900 nM (inactive)
- GI50 [22]: 10600 nM (inactive)
- GI50 [23]: 3500 nM (inactive)
- GI50 [24]: 5770 nM (inactive)
- GI50 [25]: 2470 nM (inactive)
- GI50 [26]: 1220 nM (inactive)
- GI50 [27]: 12000 nM (inactive)
- GI50 [28]: 4980 nM (inactive)
- GI50 [29]: 7800 nM (inactive)
- GI50 [30]: 11000 nM (inactive)
- GI50 [31]: 3980 nM (inactive)
- GI50 [32]: 12500 nM (inactive)
- GI50 [33]: 8510 nM (inactive)
- GI50 [34]: 6110 nM (inactive)
- GI50 [35]: 5220 nM (inactive)
- GI50 [36]: 3880 nM (inactive)
- GI50 [37]: 2630 nM (inactive)
- GI50 [38]: 9270 nM (inactive)
- GI50 [39]: 2980 nM (inactive)
- GI50 [40]: 6050 nM (inactive)
- GI50 [41]: 5680 nM (inactive)
- GI50 [42]: 7280 nM (inactive)
- GI50 [43]: 3840 nM (inactive)
- GI50 [44]: 24800 nM (inactive)
- GI50 [45]: 5640 nM
- GI50 [46]: 12000 nM (inactive)
- GI50 [47]: 8200 nM (inactive)
- GI50 [48]: 6410 nM (inactive)
- GI50 [49]: 11300 nM (inactive)
- GI50 [50]: 1670 nM (inactive)
- GI50 [51]: 3350 nM (inactive)
- GI50 [52]: 26800 nM (inactive)
- GI50 [53]: 5570 nM (inactive)
- GI50 [54]: 5380 nM (inactive)
- GI50 [55]: 9400 nM (inactive)
- GI50 [56]: 2800 nM (inactive)
- GI50 [57]: 5520 nM (inactive)
- GI50 [58]: 7570 nM (inactive)
- GI50 [59]: 4830 nM (inactive)
